Columns and labels:
Assay type in all cases: cell-based
[1] = tested on: mantle cell lymphoma cell (Mino or JeKo-1); test: Antiproliferative effect, MTS cell viability assay; conditions: 72 h, mantle cell lymphoma cell (Mino or JeKo-1), MTS assay, read-out: IC50 (anti-proliferation)
Procedure, shortened: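 Mino cells treated with compounds at 0, 0.0001, 0.001, 0.01, 0.1, 1 μM for 72 h; palbociclib and abemaciclib as positive controls. Viability by MTS, formazan absorbance read at 490 nm.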

CDK4 = molecular target: T1, CDK4 (Homo sapiens, UniProt P11802); test: CDK4 degradation (DC50, Dmax)
T1 construct: endogenous in cells
T1 sequence (P11802 whole entry): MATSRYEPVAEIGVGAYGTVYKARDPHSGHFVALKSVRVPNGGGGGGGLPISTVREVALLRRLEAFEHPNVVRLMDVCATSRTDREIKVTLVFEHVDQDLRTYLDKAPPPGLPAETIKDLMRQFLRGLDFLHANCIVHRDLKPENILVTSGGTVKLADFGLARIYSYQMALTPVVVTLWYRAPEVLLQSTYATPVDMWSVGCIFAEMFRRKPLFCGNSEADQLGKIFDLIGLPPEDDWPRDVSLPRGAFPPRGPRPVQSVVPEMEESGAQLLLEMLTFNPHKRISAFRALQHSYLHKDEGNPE

CDK6 = molecular target: T2, CDK6 (Homo sapiens, UniProt Q00534); test: CDK6 degradation (DC50, Dmax)
T2 construct: endogenous in cells
T2 sequence (Q00534 whole entry): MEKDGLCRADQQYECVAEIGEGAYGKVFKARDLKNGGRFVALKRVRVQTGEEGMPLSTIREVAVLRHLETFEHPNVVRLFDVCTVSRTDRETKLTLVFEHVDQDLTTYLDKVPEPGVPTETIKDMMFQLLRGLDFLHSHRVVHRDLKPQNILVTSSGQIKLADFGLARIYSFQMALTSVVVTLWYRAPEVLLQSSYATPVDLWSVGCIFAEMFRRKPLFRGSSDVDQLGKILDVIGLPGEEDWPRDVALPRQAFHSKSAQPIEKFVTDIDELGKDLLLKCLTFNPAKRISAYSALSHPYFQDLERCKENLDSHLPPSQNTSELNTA

Compound	IC50 [1]	DC50 (CDK4)	Dmax (CDK4)	DC50 (CDK6)	Dmax (CDK6)
Cc1nc2c(F)cc(-c3nc(Nc4ccc(CN5CCN(C(=O)C6CCN(c7ccc8c(c7)CN(C7CCC(=O)NC7=O)C8=O)CC6)CC5)cn4)ncc3F)cc2n1C(C)C (stereo not drawn) [Compound 154]	50 to 200 nM	50 to 200 nM	> 60%	> 200 nM	> 60%
Cc1nc2c(F)cc(-c3nc(Nc4ccc(CC5CCN(CC6CCN(c7ccc8c(c7)C(=O)N(C7CCC(=O)NC7=O)C8=O)CC6)CC5)cn4)ncc3F)cc2n1C(C)C (stereo not drawn) [Compound 157, 2-(2,6-dioxopiperidin-3-yl)-5-(4-((4-((6-((5-fluoro-4-(4-fluoro-1-isopropyl-2-methyl-1H-benzo[d]imidazol-6-yl)pyrimidin-2-yl)amino)pyridin-3-yl)methyl)piperidin-1-yl)methyl)piperidin-1-yl)isoindoline-1,3-dione]	< 50 nM	< 50 nM	> 80%	< 50 nM	> 80%
Cc1nc2c(F)cc(-c3nc(Nc4ccc(CC5CCN(CC6CCN(c7ccc8c(c7)CN(C7CCC(=O)NC7=O)C8=O)CC6)CC5)cn4)ncc3F)cc2n1C(C)C (stereo not drawn) [Compound 158, 3-(5-(4-((4-((6-((5-fluoro-4-(4-fluoro-1-isopropyl-2-methyl-1H-benzo[d]imidazol-6-yl)pyrimidin-2-yi)amino)pyridin-3-yl)methyl)piperidin-1-yl)methyl)piperidin-1-yl)-1-oxoisoindolin-2-yl)piperidine-2,6-dione]	< 50 nM	50 to 200 nM	> 80%	50 to 200 nM	> 80%
Cc1nc2c(F)cc(-c3nc(Nc4ccc(CC5CCN(CC6CCN(c7ccc(NC8CCC(=O)NC8=O)cc7)CC6)CC5)cn4)ncc3F)cc2n1C(C)C (stereo not drawn) [Compound 160, 3-((4-(4-((4-((6-((5-fluoro-4-(4-fluoro-1-isopropyl-2-methyl-1H-benzo[d]imidazol-6-yl)pyrimidin-2-yl)amino)pyridin-3-yl)methyl)piperidin-1-yl)methyl)piperidin-1-yl)phenyl)amino) piperidine-2,6-dione]	< 50 nM	< 50 nM	> 80%	< 50 nM	> 80%
Cc1nc2c(F)cc(-c3nc(Nc4ccc(CC5CCN(C(=O)C6CCN(c7ccc8c(c7)C(=O)N(C7CCC(=O)NC7=O)C8=O)CC6)CC5)cn4)ncc3F)cc2n1C(C)C (stereo not drawn) [Compound 161, 2-(2,6-dioxopiperidin-3-yl)-5-(4-(4-((6-((5-fluoro-4-(4-fluoro-1-isopropyl-2-methyl-1H-benzo[d]imidazol-6-yl)pyrimidin-2-yl)amino)pyridin-3-yl)methyl)piperidine-1-carbonyl)piperidin-1-yl)isoindoline-1,3-dione]	50 to 200 nM	50 to 200 nM	> 60%	> 200 nM	> 60%
Cc1nc2c(F)cc(-c3nc(Nc4ccc(CC5CCN(C(=O)C6CCN(c7ccc8c(c7)CN(C7CCC(=O)NC7=O)C8=O)CC6)CC5)cn4)ncc3F)cc2n1C(C)C (stereo not drawn) [Compound 162, 3-(5-(4-(4-((6-((5-fluoro-4-(4-fluoro-1-isopropyl-2-methyl-1H-benzo[d]imnidazol-6-yl)pyrimidin-2-yl)amino)pyridin-3-yl)methyl)piperidine-1-carbonyl)piperidin-1-yl)-1-oxoisoindolin-2-yl)piperidine-2,6-dione]	50 to 200 nM	50 to 200 nM	> 60%	> 200 nM	> 60%

Continued, values first:

IC50 [1]	DC50 (CDK4)	Dmax (CDK4)	DC50 (CDK6)	Dmax (CDK6)	Compound
< 50 nM	< 50 nM	> 80%	< 50 nM	> 80%	Cc1nc2c(F)cc(-c3nc(Nc4ccc(CN5CCN(C6CCN(c7ccc(C(=O)NC8CCC(=O)NC8=O)cc7)CC6)CC5)cn4)ncc3F)cc2n1C(C)C (stereo not drawn) [Compound 150, N-(2,6-dioxopiperidin-3-yl)-4-(4-(4-((6-((5-fluoro-4-(4-fluoro-1-isopropyl-2-methyl-1H-benzo[d]imidazol-6-yl)pyrimidin-2-yl)amino)pyridin-3-yl)methyl)piperazin-1-yl)piperidin-1-yl)benzamide]
< 50 nM	50 to 200 nM	> 80%	50 to 200 nM	> 60%	Cc1nc2c(F)cc(-c3nc(Nc4ccc(CN5CCN(CC6CCN(c7ccc(C(=O)NC8CCC(=O)NC8=O)cc7)CC6)CC5)cn4)ncc3F)cc2n1C(C)C (stereo not drawn) [Compound 151, N-(2,6-dioxopiperidin-3-yl)-4-(4-((4-((6-((5-fluoro-4-(4-fluoro-1-isopropyl-2-methyl-1H-benzo[d]imidazol-6-yl)pyrimidin-2-yl)amino)pyridin-3-yl)methyl)piperazin-1-yl)methyl)piperidin-1-yl)benzamide]
< 50 nM	< 50 nM	> 80%	50 to 200 nM	> 80%	Cc1nc2c(F)cc(-c3nc(Nc4ccc(CN5CCN(CC6CCN(c7ccc(NC8CCC(=O)NC8=O)cc7)CC6)CC5)cn4)ncc3F)cc2n1C(C)C (stereo not drawn) [Compound 152, 3-((4-(4-((4-((6-((5-fluoro-4-(4-fluoro-1-isopropyl-2-methyl-1H-benzo[d]imidazol-6-yl)pyrimidin-2-yl)amino)pyridin-3-yl)methyl)piperazin-1-yl)methyl)piperidin-1-yl)phenyl)amino) piperidine-2,6-dione]
50 to 200 nM	50 to 200 nM	> 50%	> 200 nM	> 50%	Cc1nc2c(F)cc(-c3nc(Nc4ccc(CN5CCN(C(=O)C6CCN(c7ccc(C(=O)NC8CCC(=O)NC8=O)cc7)CC6)CC5)cn4)ncc3F)cc2n1C(C)C (stereo not drawn) [Compound 155, N-(2,6-dioxopiperidin-3-yl)-4-(4-(4-((6-((5-fluoro-4-(4-fluoro-1-isopropyl-2-methyl-1H-benzo[d]imidazol-6-yl)pyrimidin-2-yl)amino)pyridin-3-yl)methyl)piperazine-1-carbonyl)piperidin-1-yl)benzamide]
50 to 200 nM	50 to 200 nM	> 60%	50 to 200 nM	> 80%	Cc1nc2c(F)cc(-c3nc(Nc4ccc(CN5CCN(C(=O)C6CCN(c7ccc(NC8CCC(=O)NC8=O)cc7)CC6)CC5)cn4)ncc3F)cc2n1C(C)C (stereo not drawn) [Compound 156, 3-((4-(4-(4-((6-((5-fluoro-4-(4-fluoro-1-isopropyl-2-methyl-1H-benzo[d]imidazol-6-yl)pyrimidin-2-yl)amino)pyridin-3-yl)methyl)piperazine-1-carbonyl)piperidin-1-yl)phenyl)amino) piperidine-2,6-dione]
< 50 nM	< 50 nM	> 80%	< 50 nM	> 80%	Cc1nc2c(F)cc(-c3nc(Nc4ccc(CC5CCN(CC6CCN(c7ccc(C(=O)NC8CCC(=O)NC8=O)cc7)CC6)CC5)cn4)ncc3F)cc2n1C(C)C (stereo not drawn) [Compound 159, N-(2,6-dioxopiperidin-3-yl)-4-(4-((4-((6-((5-fluoro-4-(4-fluoro-1-isopropyl-2-methyl-1H-benzo[d]imidazol-6-yl)pyrimidin-2-yl)amino)pyridin-3-yl)methyl)piperidin-1-yl)methyl)piperidin-1-yl)benzamide]
